US10870638B2, “Pyridazinone compound or its salt, and herbicide containing it” (ISHIHARA SANGYO KAISHA, LTD., priority 2016, dated 2020)

What was measured:
Type in all cases: in vivo
Conditions in all cases: active ingredient amount 31 g/ha, 14th day after application
[1] = test system: barnyardgrass (Echinochloa crus-qalli L.); experiment: Test Example 1: foliar treatment, growth inhibition rate on 14th day
Procedure, shortened: (§1)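 Visual 0–100% inhibition scoring (100 = complete kill) at 14 days after foliar treatment of soil-grown seedlings at species-specific leaf stages, with the compound sprayed as a wettable powder or emulsifiable concentrate dilution.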

corn (Zea mays L.) [2] = experiment: as above
Procedure, shortened: as §1

[3] = test system: crabgrass (Digitaria sanquinalis L.); experiment: as above
Procedure, shortened: as §1

[4] = test system: green foxtail (Setaria viridis L.); experiment: as above
Procedure, shortened: (§2)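 Growth inhibition rates (%) come from visual observation on the 14th day following a single foliar application. Soybean was sprayed at the primary leaf stage, rice at 0.2–2.7 leaves, wild oat at 0.4–1.2, green foxtail at 0.5–3.2.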

[5] = test system: italian ryegrass (Lolium multiflorum Lam.); experiment: as above
Procedure, shortened: as §1

[6] = test system: redroot pigweed (Amaranthus retroflexus L.); experiment: as above
Procedure, shortened: as §1

rice (Oryza sativa L.) [7] = experiment: as above
Procedure, shortened: as §2

[8] = test system: soybean (Glycine max Merr.); experiment: as above
Procedure, shortened: as §2

[9] = test system: wheat (Triticum aestivum L.); experiment: as above
Procedure, shortened: as §1

[10] = test system: wild oat (Avena fatua L.); experiment: as above
Procedure, shortened: as §2

[11] = test system: barnyardgrass (Echinochloa crus-qalli L.); experiment: Test Example 2: soil application on the day after sowing, growth inhibition rate on 14th day
Source text: (§3) Upland field soil was put into a 1/300,000 hectare pot, and seeds of various plants (barnyardgrass (Echinochloa crus-qalli L.), crabgrass (Digitaris sanquinalis L.), green foxtail (Setaria viridis L.), redroot pigweed (Amaranthus retroflexus L.), prickly sida (Sida spinosa L.), velvetleaf (Abutilon theophrasti MEDIC.), rice (Oryza sativa L.), corn (Zea mays L.), wheat (Triticum aestivum L.), soybean (Glycine max Merr.)) were sown. On the day after sowing, wettable powders or emulsifiable concentrates of the compounds of the present invention prepared in accordance with a conventional preparation method, were weighed so as to achieve the prescribed active ingredient amounts, and diluted with water in an amount corresponding to 1,000 liters per 1 hectare, followed by soil application by a small sprayer.
(§4) On the 14th day after the application, the state of growth of the respective plants was visually observed, and the herbicidal effect was evaluated by a growth inhibition rate (%) of 0 (equivalent to the non-treated area) to 100 (complete kill).

corn (Zea mays L.) [12] = experiment: as above
Source text: as §3, §4

[13] = test system: crabgrass (Digitaris sanquinalis L.); experiment: as above
Source text: as §3, §4

[14] = test system: green foxtail (Setaria viridis L.); experiment: as above
Source text: as §3, §4

[15] = test system: prickly sida (Sida spinosa L.); experiment: as above
Source text: as §3, §4

[16] = test system: redroot pigweed (Amaranthus retroflexus L.); experiment: as above
Source text: as §3, §4

rice (Oryza sativa L.) [17] = experiment: as above
Source text: as §3, §4

[18] = test system: soybean (Glycine max Merr.); experiment: as above
Source text: as §3, §4

[19] = test system: velvetleaf (Abutilon theophrasti MEDIC.); experiment: as above
Source text: as §3, §4

[20] = test system: wheat (Triticum aestivum L.); experiment: as above
Source text: as §3, §4

Cc1cc(C)c(-c2c(O)c(C)nn(C)c2=O)cc1Oc1ncc(C(F)(F)F)cc1Cl [1-14]
Growth inhibition rate (%) Barnyardgrass [1]: 98%
Growth inhibition rate (%) Corn (corn (Zea mays L.) [2]): 70%
Growth inhibition rate (%) Crabgrass [3]: 93%
Growth inhibition rate (%) Green foxtail [4]: 98%
Growth inhibition rate (%) Italian ryegrass [5]: 85%
Growth inhibition rate (%) Redroot pigweed [6]: 0%
Growth inhibition rate (%) Rice (rice (Oryza sativa L.) [7]): 80%
Growth inhibition rate (%) Soybean [8]: 0%
Growth inhibition rate (%) Wheat [9]: 0%
Growth inhibition rate (%) Wild oat [10]: 95%
Growth inhibition rate (%) Barnyardgrass [11]: 99%
Growth inhibition rate (%) Corn (corn (Zea mays L.) [12]): 0%
Growth inhibition rate (%) Crabgrass [13]: 83%
Growth inhibition rate (%) Green foxtail [14]: 93%
Growth inhibition rate (%) Prickly sida [15]: 0%
Growth inhibition rate (%) Redroot pigweed [16]: 0%
Growth inhibition rate (%) Rice (rice (Oryza sativa L.) [17]): 0%
Growth inhibition rate (%) Soybean [18]: 0%
Growth inhibition rate (%) Velvetleaf [19]: 0%
Growth inhibition rate (%) Wheat [20]: 0%

CC(=O)Oc1c(C)nn(C)c(=O)c1-c1cc(Oc2ncc(C(F)(F)F)cc2Cl)ccc1C [1-40]
Growth inhibition rate (%) Barnyardgrass [1]: 100%
Growth inhibition rate (%) Corn (corn (Zea mays L.) [2]): 100%
Growth inhibition rate (%) Crabgrass [3]: 99%
Growth inhibition rate (%) Green foxtail [4]: 100%
Growth inhibition rate (%) Italian ryegrass [5]: 100%
Growth inhibition rate (%) Redroot pigweed [6]: 40%
Growth inhibition rate (%) Rice (rice (Oryza sativa L.) [7]): 80%
Growth inhibition rate (%) Soybean [8]: 10%
Growth inhibition rate (%) Wheat [9]: 93%
Growth inhibition rate (%) Wild oat [10]: 98%
Growth inhibition rate (%) Barnyardgrass [11]: 100%
Growth inhibition rate (%) Corn (corn (Zea mays L.) [12]): 30%
Growth inhibition rate (%) Crabgrass [13]: 100%
Growth inhibition rate (%) Green foxtail [14]: 100%
Growth inhibition rate (%) Prickly sida [15]: 0%
Growth inhibition rate (%) Redroot pigweed [16]: 0%
Growth inhibition rate (%) Rice (rice (Oryza sativa L.) [17]): 60%
Growth inhibition rate (%) Soybean [18]: 0%
Growth inhibition rate (%) Velvetleaf [19]: 0%
Growth inhibition rate (%) Wheat [20]: 0%

CCOC(=O)Oc1c(C)nn(C)c(=O)c1-c1cc(Oc2ncc(C(F)(F)F)cc2Cl)ccc1C [1-41]
Growth inhibition rate (%) Barnyardgrass [1]: 100%
Growth inhibition rate (%) Corn (corn (Zea mays L.) [2]): 98%
Growth inhibition rate (%) Crabgrass [3]: 99%
Growth inhibition rate (%) Green foxtail [4]: 100%
Growth inhibition rate (%) Italian ryegrass [5]: 100%
Growth inhibition rate (%) Redroot pigweed [6]: 10%
Growth inhibition rate (%) Rice (rice (Oryza sativa L.) [7]): 80%
Growth inhibition rate (%) Soybean [8]: 0%
Growth inhibition rate (%) Wheat [9]: 98%
Growth inhibition rate (%) Wild oat [10]: 99%
Growth inhibition rate (%) Barnyardgrass [11]: 100%
Growth inhibition rate (%) Corn (corn (Zea mays L.) [12]): 20%
Growth inhibition rate (%) Crabgrass [13]: 100%
Growth inhibition rate (%) Green foxtail [14]: 100%
Growth inhibition rate (%) Prickly sida [15]: 0%
Growth inhibition rate (%) Redroot pigweed [16]: 0%
Growth inhibition rate (%) Rice (rice (Oryza sativa L.) [17]): 0%
Growth inhibition rate (%) Soybean [18]: 0%
Growth inhibition rate (%) Velvetleaf [19]: 0%
Growth inhibition rate (%) Wheat [20]: 0%

CC(=O)Oc1c(C)nn(C)c(=O)c1-c1cc(Sc2ncc(C(F)(F)F)cc2Cl)ccc1C [1-42]
Growth inhibition rate (%) Barnyardgrass [1]: 100%
Growth inhibition rate (%) Corn (corn (Zea mays L.) [2]): 100%
Growth inhibition rate (%) Crabgrass [3]: 100%
Growth inhibition rate (%) Green foxtail [4]: 100%
Growth inhibition rate (%) Italian ryegrass [5]: 100%
Growth inhibition rate (%) Redroot pigweed [6]: 10%
Growth inhibition rate (%) Rice (rice (Oryza sativa L.) [7]): 88%
Growth inhibition rate (%) Soybean [8]: 10%
Growth inhibition rate (%) Wheat [9]: 100%
Growth inhibition rate (%) Wild oat [10]: 100%
Growth inhibition rate (%) Barnyardgrass [11]: 100%
Growth inhibition rate (%) Corn (corn (Zea mays L.) [12]): 40%
Growth inhibition rate (%) Crabgrass [13]: 100%
Growth inhibition rate (%) Green foxtail [14]: 100%
Growth inhibition rate (%) Prickly sida [15]: 0%
Growth inhibition rate (%) Redroot pigweed [16]: 0%
Growth inhibition rate (%) Rice (rice (Oryza sativa L.) [17]): 80%
Growth inhibition rate (%) Soybean [18]: 0%
Growth inhibition rate (%) Velvetleaf [19]: 0%
Growth inhibition rate (%) Wheat [20]: 0%

CCc1ccc(Oc2ncc(C(F)(F)F)cc2Cl)cc1-c1c(OC(C)=O)c(C)nn(C)c1=O [1-45]
Growth inhibition rate (%) Barnyardgrass [1]: 100%
Growth inhibition rate (%) Corn (corn (Zea mays L.) [2]): 100%
Growth inhibition rate (%) Crabgrass [3]: 100%
Growth inhibition rate (%) Green foxtail [4]: 100%
Growth inhibition rate (%) Italian ryegrass [5]: 100%
Growth inhibition rate (%) Redroot pigweed [6]: 10%
Growth inhibition rate (%) Rice (rice (Oryza sativa L.) [7]): 99%
Growth inhibition rate (%) Soybean [8]: 10%
Growth inhibition rate (%) Wheat [9]: 99%
Growth inhibition rate (%) Wild oat [10]: 100%
Growth inhibition rate (%) Barnyardgrass [11]: 100%
Growth inhibition rate (%) Corn (corn (Zea mays L.) [12]): 88%
Growth inhibition rate (%) Crabgrass [13]: 100%
Growth inhibition rate (%) Green foxtail [14]: 100%
Growth inhibition rate (%) Prickly sida [15]: 0%
Growth inhibition rate (%) Redroot pigweed [16]: 0%
Growth inhibition rate (%) Rice (rice (Oryza sativa L.) [17]): 30%
Growth inhibition rate (%) Soybean [18]: 0%
Growth inhibition rate (%) Velvetleaf [19]: 0%
Growth inhibition rate (%) Wheat [20]: 20%

CCc1ccc(Sc2ncc(C(F)(F)F)cc2Cl)cc1-c1c(OC(C)=O)c(C)nn(C)c1=O [1-46]
Growth inhibition rate (%) Barnyardgrass [1]: 100%
Growth inhibition rate (%) Corn (corn (Zea mays L.) [2]): 98%
Growth inhibition rate (%) Crabgrass [3]: 100%
Growth inhibition rate (%) Green foxtail [4]: 100%
Growth inhibition rate (%) Italian ryegrass [5]: 99%
Growth inhibition rate (%) Redroot pigweed [6]: 30%
Growth inhibition rate (%) Rice (rice (Oryza sativa L.) [7]): 80%
Growth inhibition rate (%) Soybean [8]: 0%
Growth inhibition rate (%) Wheat [9]: 98%
Growth inhibition rate (%) Wild oat [10]: 100%
Growth inhibition rate (%) Barnyardgrass [11]: 80%
Growth inhibition rate (%) Corn (corn (Zea mays L.) [12]): 0%
Growth inhibition rate (%) Crabgrass [13]: 90%
Growth inhibition rate (%) Green foxtail [14]: 99%
Growth inhibition rate (%) Prickly sida [15]: 0%
Growth inhibition rate (%) Redroot pigweed [16]: 0%
Growth inhibition rate (%) Rice (rice (Oryza sativa L.) [17]): 30%
Growth inhibition rate (%) Soybean [18]: 0%
Growth inhibition rate (%) Velvetleaf [19]: 0%
Growth inhibition rate (%) Wheat [20]: 30%
